One may read the inhibition as the change of the read-out against control, counted positive when it falls.

For 62 molecules, inhibition results are on record in patent publication US20110230472A1, “RING-FUSED AZOLE DERIVATIVE HAVING PI3K-INHIBITING ACTIVITY” (Shionogi & Co., Ltd., priority 2008, published 2011).

Chain of PI-3 kinase γ (P48736 whole entry): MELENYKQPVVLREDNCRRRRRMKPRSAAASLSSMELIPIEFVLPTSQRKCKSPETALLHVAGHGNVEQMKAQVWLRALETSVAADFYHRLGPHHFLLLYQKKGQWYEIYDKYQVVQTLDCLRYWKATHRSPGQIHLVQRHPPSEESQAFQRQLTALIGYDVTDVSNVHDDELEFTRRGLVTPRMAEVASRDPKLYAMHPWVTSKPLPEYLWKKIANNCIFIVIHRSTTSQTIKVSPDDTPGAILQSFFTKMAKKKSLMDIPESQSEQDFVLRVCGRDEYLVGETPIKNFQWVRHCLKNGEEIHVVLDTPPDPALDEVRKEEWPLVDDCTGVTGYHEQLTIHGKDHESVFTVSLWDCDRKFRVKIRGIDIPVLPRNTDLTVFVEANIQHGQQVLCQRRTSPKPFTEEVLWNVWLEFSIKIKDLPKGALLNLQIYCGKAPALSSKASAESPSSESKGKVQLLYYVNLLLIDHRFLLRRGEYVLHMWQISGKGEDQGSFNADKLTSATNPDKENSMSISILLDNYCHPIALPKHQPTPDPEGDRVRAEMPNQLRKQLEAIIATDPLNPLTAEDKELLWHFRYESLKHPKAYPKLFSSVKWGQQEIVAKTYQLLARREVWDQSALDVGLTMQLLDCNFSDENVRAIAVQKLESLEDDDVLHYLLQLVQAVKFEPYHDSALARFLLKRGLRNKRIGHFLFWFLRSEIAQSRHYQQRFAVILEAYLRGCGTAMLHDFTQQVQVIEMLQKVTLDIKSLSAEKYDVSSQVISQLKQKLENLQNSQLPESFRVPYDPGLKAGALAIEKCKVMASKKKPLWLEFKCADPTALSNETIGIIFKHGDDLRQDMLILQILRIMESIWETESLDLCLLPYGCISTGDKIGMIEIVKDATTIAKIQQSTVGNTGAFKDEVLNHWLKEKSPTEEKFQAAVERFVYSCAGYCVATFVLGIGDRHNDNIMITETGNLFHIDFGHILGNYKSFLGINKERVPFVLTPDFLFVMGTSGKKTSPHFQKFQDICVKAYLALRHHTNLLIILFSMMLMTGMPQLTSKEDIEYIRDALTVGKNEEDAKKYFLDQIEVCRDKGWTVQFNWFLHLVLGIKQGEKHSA

In the first test the target is PI-3 kinase γ (Homo sapiens, UniProt P48736). As to the kind of experiment: PI3Kγ inhibitory activity, PI3-kinase HTRF assay (inhibition ratio). Format: biochemical. Particulars: 0.5 h; PI3Kγ, compound at 10 μM. How it is done:
The PI3Kγ inhibitory activity of a compound was evaluated using PI3-kinase HTRF™ assay (Millipore) according to the following procedure:
To each well of a testing plate, 5 μL of a compound solution containing 10% DMSO (200 μmol/L or 40 μmol/L as the concentration of the compound), 5 μL of a substrate solution (40 μmol/L phosphatidylinositol (4,5)-bisphosphate, 20 mmol/L MgCl2, 10 mmol/L DTT), and 5 μL of a enzyme solution (80 μg/mL PI-3 kinase γ, 10 mmol/L MgCl2, 5 mmol/L DTT) were added, and then allowed to stand for 10 minutes.
Then, 5 μL of a reaction solution (40 μmol/L ATP, 10 mmol/L MgCl2, 5 mmol/L DTT) was added thereto. After reacting for 30 minutes at room temperature, 5 μL of a solution containing EDTA and biotinylated phosphatidylinositol (3,4,5)-triphosphate were added to quench the reaction.
5 μL of a detection reagent containing a europium-labeled anti-GST antibody, the GST-tagged PH domain, and allophycocyanin-labeled streptavidin was added thereto. After 18 hours, HTRF (excitation wavelength: 330 nm, measured wavelengths: 620 nm and 665 nm) was measured.
HTRF ratio was defined as the value obtained by dividing the amount of fluorescence obtained at the measured wavelength 665 nm by the amount of fluorescence obtained at 620 nm. The HTRF ratio in the absence of a compound was defined as 100% activity and the HTRF ratio in the absence of PI-3 kinase γ was defined as 0% activity to calculate an inhibition ratio which was defined as the PI3Kγ inhibitory activity of a compound at 50 μmol/L or 10 μmol/L.
On to `COc1cc(N2CCc3nc(NC(=O)NCCCN4CCCC4=O)sc3C2)nc(OC)n1` [Compound I-253], for which the inhibition at 10 µM was determined as 82%. Consider `COc1cc(N2CCc3nc(NC(=O)NCCC(=O)N(C(C)C)C(C)C)sc3C2)nc(OC)n1` [Compound I-272], for which the inhibition at 10 µM is ≥ 95%.

On to `COc1cc(N2CCc3nc(NC(=O)NCC(=O)NCC(C)(C)C)sc3C2)nc(OC)n1` [Compound I-285], for which the inhibition at 10 µM is ≥ 95%.

`COc1cc(N2CCc3nc(NC(=O)CC(=O)OC(C)(C)C)sc3C2)nc(OC)n1` [Compound I-264]: the inhibition at 10 µM was 89%. On to `COc1cc(N2CCc3nc(NC(=O)CCNC(=O)OC(C)(C)C)sc3C2)nc(OC)n1` [Compound I-281], for which the inhibition at 10 µM is ≥ 95%.

The same test, now with this note: 0.5 h; PI3Kγ, compound at 50 μM.
For `CNC(=O)Nc1cc2n(n1)CCN2c1cc(C(=O)N2CCOCC2)cc(-c2ccc(N)cc2)c1` [Compound I-210], the inhibition at 50 µM was ≥ 95%. `O=C(O)CCNC(=O)Nc1cc2n(n1)CCN2c1cccc(Cl)c1` [Compound I-215]: the inhibition at 50 µM is ≥ 95%.

With `CC(=O)Nc1cc2n(C(=O)OC(C)(C)C)ccn2n1` [Compound I-7], the inhibition at 50 µM is ≥ 95%. For the molecule `CNC(=O)Nc1cc2n(n1)CCN2c1ccc2c(c1)NC(=O)CC2` [Compound I-227], the inhibition at 50 µM is ≥ 95%.

Regarding `O=C(Nc1cc2n(n1)CCN2c1cccc(Cl)c1)c1ccc2nccn2c1` [Compound I-241], the inhibition at 50 µM came to 84%. Consider `CNC(=O)Nc1cc2n(n1)CCN(c1cncc(OC)c1)C2` [Compound I-65], for which the inhibition at 50 µM was ≥ 95%. On the same count and under the same terms, next, `CNC(=O)Nc1cc2n(n1)CCN2c1cc(Br)cc(C(=O)OC(C)(C)C)c1` [Compound I-167]: 92%; `NC(=O)CCC(=O)Nc1cc2n(n1)CCN2c1cccc(Cl)c1` [Compound I-249]: ≥ 95%.

In the case of `CNC(=O)Nc1cc2n(n1)CCN2c1cc(Br)cc(C(N)=O)c1` [Compound I-178], the inhibition at 50 µM is ≥ 95%. On the same count and under the same terms, the same measure for `CNC(=O)Nc1cc2n(n1)CCN2c1cc(C#Cc2cccnc2)cc(C(=O)N2CCOCC2)c1` [Compound I-254]: 81%; for `COc1cccc(N2CCn3nc(N)cc32)c1` [Compound I-286]: 77%. For `CNC(=O)Nc1cc2n(n1)CCN2c1cccc(-c2cnco2)c1` [Compound I-84], the inhibition at 50 µM was ≥ 95%. As to `CNC(=O)Nc1cc2n(n1)CCN2c1cc(/C=C/c2ccccc2)cc(C(=O)N2CCOCC2)c1` [Compound I-225], the inhibition at 50 µM was 93%. Same read-out and setting: the same measure for `CNC(=O)Nc1cc2n(n1)CCN2c1ccc(Cl)cc1` [Compound I-102]: ≥ 95%. `CNC(=O)Nc1cc2n(n1)CCN2c1cc(C#Cc2ccccc2)cc(C(=O)N2CCOCC2)c1` [Compound I-228]: the inhibition at 50 µM stood at 85%. As to `CNC(=O)Nc1cc2n(n1)CCN2c1cccc(-c2cnc(C)o2)c1` [Compound I-164], the inhibition at 50 µM was ≥ 95%. Still for that read-out and setting: next, `CNC(=O)Nc1cc2n(n1)CCN2c1cccc(-c2csc(NC(=O)OC(C)(C)C)n2)c1` [Compound I-188]: 91%; `CNC(=O)Nc1cc2n(n1)CCN2c1cc(Br)cc(C(=O)N2CCN(C(=O)OC(C)(C)C)CC2)c1` [Compound I-182]: 79%. For `COC(=O)c1cc(N2CCc3nc(NC(=O)c4cccc(Cl)c4)sc3C2)nc(Cl)n1` [Compound I-126], the inhibition at 50 µM is ≥ 95%. Still for that read-out and setting: the same measure for `CNC(=O)Nc1cc2n(n1)CCN2c1cc(Br)cc(C(=O)O)c1` [Compound I-149]: ≥ 95%; for `CNC(=O)Nc1cc2n(n1)CCN2c1cc(Br)cc(C(=O)NCCC(=O)O)c1` [Compound I-186]: 89%; for `O=C(O)c1cccc(C(=O)Nc2cc3n(n2)CCN3c2cccc(Cl)c2)c1` [Compound I-247]: 95%. Same read-out and setting: next, `O=C(Cn1ccnc1)Nc1cc2n(n1)CCN2c1cccc(Cl)c1` [Compound I-242]: ≥ 95%; `CNC(=O)Nc1cc2n(n1)CCN2c1cccnc1` [Compound I-80]: ≥ 95%; `O=C(Nc1cc2n(n1)CCN2c1cccc(Cl)c1)c1cccc(O)c1` [Compound I-240]: 91%.

For the molecule `CNC(=O)Nc1nc2c(s1)CN(c1cc(Cl)nc(SC)n1)CC2` [Compound I-128], the inhibition at 50 µM is ≥ 95%. Same read-out and setting: next, `CNC(=O)Nc1cc2n(n1)CCN2c1cc(Br)cc(C(=O)NCCOC)c1` [Compound I-183]: ≥ 95%. Still for that read-out and setting: the same measure for `CNC(=O)Nc1cc2n(n1)CCN2c1ccc(C(=O)O)c(OC)c1` [Compound I-148]: ≥ 95%.

`CCOC(=O)CNC(=O)Nc1cc2n(n1)CCN2c1ccccc1` [Compound I-129]: the inhibition at 50 µM stood at 81%.

The test is the same for the next values; noted with them: 0.5 h; compound at 10 μmol/L.
As for `COc1cc(N2CCc3nc(NC(=O)NCC4(C(=O)NC(C)C)CC4)sc3C2)nc(OC)n1` [Compound I-546], the inhibition at 10 µM was found to be 86%. Turning to `COC(=O)c1csc(C(=O)Nc2cc3n(n2)CCN3c2ccc3c(c2)CCN(C)C3=O)c1` [Compound I-399], the inhibition at 10 µM is ≥ 95%. As for `CC(C)NS(=O)(=O)c1ccc(C(=O)Nc2cc3n(n2)CCN3c2ccc3c(c2)CCN(C)C3=O)cc1` [Compound I-527], the inhibition at 10 µM turned out to be 79%. Same read-out and setting: next, `COc1cc(N2CCc3nc(NC(=O)NCCC(=O)N4CCC[C@H]4C(=O)N(C)C(C)C)sc3C2)nc(OC)n1` [Compound I-313]: 89%. For the molecule `CCOc1ccc(C(=O)Nc2nc3c(s2)CN(c2cc(OC)nc(OC)n2)CC3)o1` [Compound I-457], the inhibition at 10 µM amounted to 88%. Still for that read-out and setting: the same measure for `CN1CCc2cc(N3CCn4nc(NC(=O)c5cnc(N6CCC[C@H]6C(=O)O)s5)cc43)ccc2C1=O` [Compound I-536]: ≥ 95%.

Take `CNS(=O)(=O)c1cc(C(=O)Nc2cc3n(n2)CCN3c2ccc3c(c2)CCN(C)C3=O)cs1` [Compound I-437]: the inhibition at 10 µM is ≥ 95%. Still for that read-out and setting: next, `COc1cc(N2CCc3nc(NC(=O)NCCC(=O)N4CCC[C@H]4C(=O)N4CCCC4)sc3C2)nc(OC)n1` [Compound I-312]: ≥ 95%. For the molecule `CC(Oc1cccc(C(=O)Nc2cc3n(n2)CCN3c2ccc3c(c2)CCN(C)C3=O)c1)C(N)=O` (centres unmarked) [Compound I-468], the inhibition at 10 µM is ≥ 95%. For the molecule `CN(C)C(=O)Nc1cc2n(n1)CCN2c1ccc2c(c1)CCN(C)C2=O` [Compound I-539], the inhibition at 10 µM was ≥ 95%. As to `COc1cccc(N2CCn3nc(NC(=O)CCNC(=O)OC(C)(C)C)cc32)c1` [Compound I-293], the inhibition at 10 µM amounted to 86%. On to `CN1CCc2cc(N3CCn4nc(NC(=O)c5cccc(C(=O)O)c5)cc43)ccc2C1=O` [Compound I-472], for which the inhibition at 10 µM is ≥ 95%. On to `COc1cccc(C(=O)Nc2cc3n(n2)CCN3c2ccc3c(c2)CCN(C)C3=O)c1` [Compound I-462], for which the inhibition at 10 µM is ≥ 95%. Turning to `CC(C)CCNC(=O)CCNC(=O)Nc1cc2n(n1)CCN2c1ccc2c(c1)CCN(C)C2=O` [Compound I-538], the inhibition at 10 µM is 94%. On the same count and under the same terms, the same measure for `CN1CCc2cc(N3CCn4nc(NC(=O)c5csc(C(=O)O)c5)cc43)ccc2C1=O` [Compound I-418]: 93%; for `CN1CCc2cc(N3CCn4nc(NC(=O)c5cc(C(=O)O)cs5)cc43)ccc2C1=O` [Compound I-401]: 93%; for `CNC(=O)c1ccc(C(=O)Nc2cc3n(n2)CCN3c2ccc3c(c2)CCN(C)C3=O)s1` [Compound I-406]: ≥ 95%. Turning to `CN1CCc2cc(N3CCn4nc(NC(=O)Nc5cccs5)cc43)ccc2C1=O` [Compound I-367], the inhibition at 10 µM worked out at 86%. Still for that read-out and setting: next, `CN1CCc2cc(N3CCn4nc(NC(=O)c5sccc5Cl)cc43)ccc2C1=O` [Compound I-445]: 89%; `CN1CCc2cc(N3CCn4nc(NC(=O)c5ccccc5)cc43)ccc2C1=O` [Compound I-324]: 93%; `CC(C)NS(=O)(=O)c1cc(C(=O)Nc2cc3n(n2)CCN3c2ccc3c(c2)CCN(C)C3=O)cs1` [Compound I-428]: 90%. Same read-out and setting: the same measure for `CN1CCc2cc(N3CCn4nc(NC(=O)C(=O)c5cccs5)cc43)ccc2C1=O` [Compound I-450]: ≥ 95%; for `CNC(=O)Nc1cc2n(n1)CCN2c1ccc2c(c1)CCN(C)C2=O` [Compound I-336]: 89%.

The test is the same for the next values; noted with them: 0.5 h; compound at 50 μmol/L.
For `CC(=O)Nc1cc2n(n1)CCN2c1ccc2c(c1)CCNC2` [Compound I-305], the inhibition at 50 µM came to 84%. Same read-out and setting: next, `CNC(=O)Nc1nc2c(s1)CN(c1cc(OCC3CC3)nc(Cl)n1)CC2` [Compound I-325]: 81%. Still for that read-out and setting: next, `COc1cc(N2CCc3nc(NC(=O)NC4CCC(C(C)(C)C)CC4)sc3C2)nc(OC)n1` (centres unmarked) [Compound I-290]: 88%; `CN1CCc2cc(N3CCn4nc(NC(=O)NC5CCCC5)cc43)ccc2C1=O` [Compound I-369]: ≥ 95%; `CN1CCc2cc(N3CCn4nc(NC(=O)C5CCNC5)cc43)ccc2C1=O` (centres unmarked) [Compound I-355]: 92%.
